Source: PubChem BioAssay AID200 (DTP/NCI, 2004)
Where “and” joins values, the source holds several entries; their conditions need not be identical. Equal values may be shown once. Inconclusive results and toxic doses are left out. Where a SMILES comes first, the peptide text is derived from it. [ ]: non-standard residue; d: D form. The star is where a group is joined. Cbz = O=C(OCc1ccccc1)*; Nva = CCC[CH](N)C(=O)O

System: B6C3F1 mice, B16 melanoma ip, median survival T/C
Assay: NCI In Vivo Anticancer Drug Screen. Data for tumor model B16 Melanoma (intraperitoneal) in B6C3F1 mice
Details: endpoint: median survival time, higher = longer survival
Summary of the method: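 Tumor-bearing mice received test compound; a separate group got vehicle only. Survival was then compared, with results reported as treated over control.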

[1] = dose: 100.0 mg/kg/injection, schedule: Q01DX009 (ip), vehicle: water
[2] = dose: 50.0 mg/kg/injection, schedule: Q01DX009 (ip), vehicle: saline
[3] = dose: 100.0 mg/kg/injection, schedule: Q01DX009 (ip), vehicle: saline
[4] = dose: 6.25 mg/kg/injection, schedule: Q01DX009 (ip), vehicle: saline with Tween-80
[5] = dose: 12.5 mg/kg/injection, schedule: Q01DX009 (ip), vehicle: saline with Tween-80
[6] = dose: 50.0 mg/kg/injection, schedule: Q01DX009 (ip), vehicle: saline with Tween-80
[7] = dose: 200.0 mg/kg/injection, schedule: Q01DX009 (ip), vehicle: saline
[8] = dose: 100.0 mg/kg/injection, schedule: Q01DX009 (ip), vehicle: Klucel (hydroxypropylcellulose) (HPC)
[9] = dose: 200.0 mg/kg/injection, schedule: Q01DX009 (ip), vehicle: Klucel (hydroxypropylcellulose) (HPC)
[10] = dose: 12.5 mg/kg/injection, schedule: Q01DX009 (ip), vehicle: saline
[11] = dose: 25.0 mg/kg/injection, schedule: Q01DX009 (ip), vehicle: saline
[12] = dose: 400.0 mg/kg/injection, schedule: Q01DX009 (ip), vehicle: Klucel (hydroxypropylcellulose) (HPC)

With CN1CCN(CN2C(=O)C3C4C=CC(C3C2=O)C2C3C(=O)N(CN5CCN(C)CC5)C(=O)C3C42)CC1 (centres undefined) the T/C (dose: 16.1 mg/kg/injection, schedule: Q01DX009 (ip), vehicle: water) was 103 % of control, the T/C (dose: 21.6 mg/kg/injection, schedule: Q01DX009 (ip), vehicle: water) was 104 % of control and the T/C (dose: 26.8 mg/kg/injection, schedule: Q01DX009 (ip), vehicle: water) was 98 % of control. For the same compound, the T/C (dose: 36.0 mg/kg/injection, schedule: Q01DX009 (ip), vehicle: water) was 102 % of control, the T/C (dose: 44.7 mg/kg/injection, schedule: Q01DX009 (ip), vehicle: water) was 107 % of control and the T/C (dose: 60.0 mg/kg/injection, schedule: Q01DX009 (ip), vehicle: water) was 104 % of control. For the same compound, the T/C (dose: 74.5 mg/kg/injection, schedule: Q01DX009 (ip), vehicle: water) was 103 % of control and the T/C [1] was 120 % of control.

In the case of CC(C)C(NC(=O)C(F)(F)F)C(=O)O (centres undefined), the T/C [2] was 96 % of control and the T/C [3] was 89 % of control.

In the case of [NH-]C(CCC(N)=O)C(=O)O.[NH-]C(CCC(N)=O)C(=O)O.[Zn+2] (centres undefined), the T/C [4] was 95 % of control, the T/C [5] was 93 % of control and the T/C (dose: 25.0 mg/kg/injection, schedule: Q01DX009 (ip), vehicle: saline with Tween-80) was 98 % of control. For the same compound, the T/C [6] was 90 % of control.

For CC(=O)NC(C=O)OCC=O (centres undefined), the T/C (dose: 6.25 mg/kg/injection, schedule: Q01DX009 (ip), vehicle: water) was 112 % of control, the T/C (dose: 12.5 mg/kg/injection, schedule: Q01DX009 (ip), vehicle: water) was 111 % of control and 106 % of control and the T/C (dose: 25.0 mg/kg/injection, schedule: Q01DX009 (ip), vehicle: water) was 109 % of control and 105 % of control. The T/C (dose: 50.0 mg/kg/injection, schedule: Q01DX009 (ip), vehicle: water) was 103 % of control and 106 % of control, the T/C [1] was 111 % of control and 117 % of control and the T/C (dose: 200.0 mg/kg/injection, schedule: Q01DX009 (ip), vehicle: water) was 112 % of control.

In the case of O=C(CCl)N1c2ccccc2Oc2cc3ccccc3cc21, the T/C [6] was 111 % of control, the T/C (dose: 100.0 mg/kg/injection, schedule: Q01DX009 (ip), vehicle: saline with Tween-80) was 108 % of control and the T/C (dose: 200.0 mg/kg/injection, schedule: Q01DX009 (ip), vehicle: saline with Tween-80) was 97 % of control. The T/C [7] was 122 % of control and 95 % of control, the T/C (dose: 400.0 mg/kg/injection, schedule: Q01DX009 (ip), vehicle: saline with Tween-80) was 92 % of control and the T/C (dose: 400.0 mg/kg/injection, schedule: Q01DX009 (ip), vehicle: saline) was 97 % of control and 100 % of control.

With CC1=C(C(N)=O)C(c2ccccc2)NC(=S)N1 (centres undefined) the T/C (dose: 25.0 mg/kg/injection, schedule: Q01DX009 (ip), vehicle: Klucel (hydroxypropylcellulose) (HPC)) was 106 % of control, the T/C (dose: 50.0 mg/kg/injection, schedule: Q01DX009 (ip), vehicle: Klucel (hydroxypropylcellulose) (HPC)) was 105 % of control and the T/C [8] was 100 % of control. For the same compound, the T/C [9] was 117 % of control.

For Nc1nc(-c2ccccc2)c(N=O)c(=O)[nH]1, the T/C (dose: 14.0 mg/kg/injection, schedule: Q01DX009 (ip), vehicle: saline with Tween-80) was 96 % of control, the T/C (dose: 28.0 mg/kg/injection, schedule: Q01DX009 (ip), vehicle: saline with Tween-80) was 94 % of control and the T/C (dose: 56.0 mg/kg/injection, schedule: Q01DX009 (ip), vehicle: saline with Tween-80) was 91 % of control. For the same compound, the T/C (dose: 112.0 mg/kg/injection, schedule: Q01DX009 (ip), vehicle: saline with Tween-80) was 101 % of control.

For Nc1cc2c3c(cccc3c1)C(=O)N(CCN1CCCC1)C2=O, the T/C (dose: 3.12 mg/kg/injection, schedule: Q01DX009 (ip), vehicle: saline with Tween-80) was 113 % of control and 106 % of control, the T/C [4] was 97 % of control and 98 % of control and the T/C [5] was 115 % of control and 107 % of control. For the same compound, the T/C [6] was 122 % of control.

CN(CCN(C)C(=O)CCOS(C)(=O)=O)C(=O)CCOS(C)(=O)=O was tested, and the T/C [10] was 113 % of control, the T/C [11] was 161 % of control and the T/C [2] was 203 % of control and 219 % of control. The T/C [3] was 213 % of control and 263 % of control and the T/C [7] was 102 % of control.

In the case of CN(N=O)C(=O)N[C@@H](C=O)[C@@H](O)[C@H](O)[C@H](O)CO, the T/C (dose: 12.5 mg/kg/injection, schedule: Q01DX009 (ip), vehicle: other) was 115 % of control and the T/C (dose: 25.0 mg/kg/injection, schedule: Q01DX009 (ip), vehicle: other) was 120 % of control.

For Cc1c2c(ccc3ccccc32)c[n+]2ccccc12, the T/C (dose: 1.56 mg/kg/injection, schedule: Q01DX009 (ip), vehicle: saline) was 89 % of control, the T/C (dose: 3.12 mg/kg/injection, schedule: Q01DX009 (ip), vehicle: saline) was 103 % of control and the T/C (dose: 6.25 mg/kg/injection, schedule: Q01DX009 (ip), vehicle: saline) was 105 % of control. For the same compound, the T/C [10] was 108 % of control and the T/C [11] was 108 % of control.

For Cc1ccc(NCC2(/N=C/c3ccccc3)OC(CO)C(O)C2O)cc1 (centres undefined), the T/C [12] was 161 % of control.

For CCOC(=O)NC1=C(N2CC2)C(=O)C(NC(=O)OCC)=C(N2CC2)C1=O, the T/C (dose: 0.25 mg/kg/injection, schedule: Q01DX009 (ip), vehicle: saline) was 97 % of control, the T/C (dose: 0.5 mg/kg/injection, schedule: Q01DX009 (ip), vehicle: saline) was 92 % of control and the T/C (dose: 2.0 mg/kg/injection, schedule: Q01DX009 (ip), vehicle: saline) was 115 % of control.

With COc1ccc(CC2C(=O)NC(C)C(=O)N(C)C3Cc4ccc(cc4)Oc4cc(ccc4O)CC(C(=O)NC(C)C(=O)NC(C)C(=O)N2C)N(C)C3=O)cc1 (centres undefined) the T/C (dose: 0.25 mg/kg/injection, schedule: Q01DX009 (ip), vehicle: saline with Tween-80) was 158 % of control, the T/C (dose: 0.5 mg/kg/injection, schedule: Q01DX005 (ip), vehicle: saline with Tween-80) was 110 % of control and the T/C (dose: 0.5 mg/kg/injection, schedule: Q01DX005 (iv), vehicle: saline with Tween-80) was 102 % of control and 104 % of control. The T/C (dose: 0.5 mg/kg/injection, schedule: Q01DX009 (ip), vehicle: saline + Tween-80 + alcohol) was 118 % of control, the T/C (dose: 0.5 mg/kg/injection, schedule: Q01DX009 (ip), vehicle: saline with Tween-80) was 162 % of control and 166 % of control and the T/C (dose: 1.0 mg/kg/injection, schedule: Q01DX005 (ip), vehicle: saline with Tween-80) was 124 % of control. The T/C (dose: 1.0 mg/kg/injection, schedule: Q01DX005 (iv), vehicle: saline with Tween-80) was 109 % of control and 105 % of control, the T/C (dose: 1.0 mg/kg/injection, schedule: Q01DX009 (ip), vehicle: saline + Tween-80 + alcohol) was 117 % of control and the T/C (dose: 1.0 mg/kg/injection, schedule: Q01DX009 (ip), vehicle: saline with Tween-80) was 91 % of control. The T/C (dose: 2.0 mg/kg/injection, schedule: Q01DX005 (iv), vehicle: saline with Tween-80) was 122 % of control and 107 % of control, the T/C (dose: 2.0 mg/kg/injection, schedule: Q01DX009 (ip), vehicle: saline with Tween-80) was 122 % of control and the T/C (dose: 4.0 mg/kg/injection, schedule: Q01DX005 (ip), vehicle: saline with Tween-80) was 122 % of control. For the same compound, the T/C (dose: 4.0 mg/kg/injection, schedule: Q01DX005 (iv), vehicle: saline with Tween-80) was 109 % of control and 111 % of control, the T/C (dose: 4.0 mg/kg/injection, schedule: Q01DX009 (ip), vehicle: other) was 150 % of control and the T/C (dose: 4.0 mg/kg/injection, schedule: Q01DX009 (ip), vehicle: saline with Tween-80) was 161 % of control. The T/C (dose: 8.0 mg/kg/injection, schedule: Q01DX005 (iv), vehicle: saline with Tween-80) was 110 % of control and 116 % of control and the T/C (dose: 8.0 mg/kg/injection, schedule: Q01DX009 (ip), vehicle: other) was 159 % of control.

In the case of CN(CN1C(=O)CCC1=O)CN1C(=O)CCC1=O, the T/C [11] was 98 % of control, the T/C [2] was 101 % of control and the T/C [3] was 105 % of control. The T/C [7] was 115 % of control.

C[C@@H]1CN(C(=O)CCOS(C)(=O)=O)[C@@H](C)CN1C(=O)CCOS(C)(=O)=O was tested, and the T/C [7] was 172 % of control.

In the case of CCCC(NC(=O)OCc1ccccc1)C(=O)NC(CC(C)C)C(=O)O (centres undefined) (Cbz-[Nva]-Leu-OH; configuration not given here), the T/C [8] was 104 % of control, the T/C [9] was 104 % of control and the T/C [12] was 96 % of control.
